Drawing on PubChem BioAssay (NCI), this text covers TGI for 9 compounds.

Some test systems named below: OVCAR-8 ovarian; RPMI-8226 leukemia; UACC-62 melanoma; TK-10 renal; K-562 leukemia; OVCAR-3 ovarian; SN12C renal; NCI-H522 lung; SK-MEL-5 melanoma; NCI-H460 lung; EKVX NSCLC; SF-539 CNS; RXF 393 renal; HT29 colon; 786-0 renal; SF-268 CNS; SNB-19 CNS.
Common to all, as to experiment: NCI-60 cell line screen, 48 h

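Briefly, cells in 96-well plates were exposed to five compound concentrations for 48 h, and endpoints were estimated by linear interpolation. The concentration for full growth arrest is given as TGI.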

For `NC1=C(O)/C(=N/NS(=O)(=O)c2ccccc2)C(c2ccc3c(c2)OCO3)O1` (stereo not drawn), the TGI in the test with OVCAR-8 ovarian, in the test with RPMI-8226 leukemia, with UACC-62 melanoma, in the test on TK-10 renal, with K-562 leukemia and in the test on OVCAR-3 ovarian was above 100 µM in each case. Further, the TGI in the test with SN12C renal, with NCI-H522 lung, in the test with SK-MEL-5 melanoma, in the test on NCI-H460 lung, in the test on EKVX NSCLC and in the test on SF-539 CNS was above 100 µM throughout. Moreover, the TGI with RXF 393 renal, in the test with HT29 colon, with 786-0 renal, with SF-268 CNS and with SNB-19 CNS was above 100 µM in each case.
With `COC(=O)C(/C(=N/N)C(=O)Nc1cc(Cl)ccc1Cl)c1nc2ccc([N+](=O)[O-])cc2[nH]c1=O` (stereo not drawn), the TGI with OVCAR-8 ovarian, with RPMI-8226 leukemia, with UACC-62 melanoma, with TK-10 renal, in the test on K-562 leukemia and in the test with OVCAR-3 ovarian was above 100 µM each time. The TGI in the test with SN12C renal, in the test with NCI-H522 lung, with SK-MEL-5 melanoma, in the test on NCI-H460 lung, in the test with EKVX NSCLC and with SF-539 CNS was above 100 µM each time. For the same compound, the TGI in the test on HT29 colon, in the test on 786-0 renal, with SF-268 CNS and with SNB-19 CNS was above 100 µM each time.
As to `Cc1ccc([N+](=O)[O-])cc1NC(=O)C(=O)Cc1nc2ccc(C(=O)c3ccccc3)cc2[nH]c1=O`, the TGI with OVCAR-8 ovarian, in the test with UACC-62 melanoma, in the test with TK-10 renal, in the test on OVCAR-3 ovarian, with SN12C renal and in the test with NCI-H522 lung was above 100 µM throughout. Also, the TGI in the test on SK-MEL-5 melanoma, in the test with NCI-H460 lung, in the test with EKVX NSCLC, with SF-539 CNS, in the test with RXF 393 renal and with HT29 colon was above 100 µM each time. For the same compound, the TGI in the test on 786-0 renal and in the test with SNB-19 CNS was above 100 µM throughout.
With `O=C(/C=C/c1ccc(-c2ccccc2)cc1)c1ccccc1`, the TGI in the test with OVCAR-8 ovarian was 33.8 µM; in the test with RPMI-8226 leukemia, 61.8 µM; in the test on UACC-62 melanoma, 50 µM; with TK-10 renal it was 82.6 µM; in the test on K-562 leukemia, above 100 µM; in the test on SN12C renal it was above 100 µM. The TGI in the test on NCI-H522 lung was 35.4 µM; with SK-MEL-5 melanoma it was 49 µM; with NCI-H460 lung, 50.9 µM; in the test on EKVX NSCLC it was 50.8 µM; with SF-539 CNS, 32.2 µM; with HT29 colon, 52.1 µM. The TGI in the test with 786-0 renal turned out to be 50.9 µM; with SF-268 CNS, 70.1 µM.
With `CC(=O)NNc1ncc(C(=O)/C=C/c2ccccc2C)s1`, the TGI in the test on OVCAR-8 ovarian, in the test on RPMI-8226 leukemia, in the test with UACC-62 melanoma, with TK-10 renal, with K-562 leukemia and in the test on OVCAR-3 ovarian was above 100 µM throughout. Also, the TGI in the test with NCI-H522 lung, with SK-MEL-5 melanoma, in the test with NCI-H460 lung, in the test with EKVX NSCLC, in the test on SF-539 CNS and with RXF 393 renal was above 100 µM throughout. The TGI with HT29 colon, in the test on 786-0 renal, in the test on SF-268 CNS and in the test on SNB-19 CNS was above 100 µM in each case.
Turning to `O=C(NC1CCCCC1)NC12CC3CC(CC(F)(C3)C1)C2`, the TGI in the test on OVCAR-8 ovarian, with RPMI-8226 leukemia, in the test with UACC-62 melanoma, in the test with TK-10 renal, in the test with K-562 leukemia and with OVCAR-3 ovarian was above 100 µM in each case. Moreover, the TGI in the test on NCI-H522 lung, in the test on SK-MEL-5 melanoma, in the test on NCI-H460 lung, with EKVX NSCLC, in the test with SF-539 CNS and with RXF 393 renal was above 100 µM throughout. Also, the TGI with HT29 colon, in the test on 786-0 renal and in the test with SNB-19 CNS was above 100 µM in each case.
For `CC1=C(C(=O)O)N2C(=O)[C@@H](NC(=O)C(c3ccccc3)N3CSC(=S)N(C(C)C)C3)C2SC1` (stereo partly drawn), the TGI with OVCAR-8 ovarian, in the test with RPMI-8226 leukemia, in the test with UACC-62 melanoma, with TK-10 renal, in the test on K-562 leukemia and in the test on OVCAR-3 ovarian was above 100 µM in each case. Moreover, the TGI in the test with SN12C renal is above 100 µM; in the test with NCI-H522 lung, 66.6 µM; in the test on SK-MEL-5 melanoma, above 100 µM; in the test with NCI-H460 lung, above 100 µM; with EKVX NSCLC, above 100 µM; in the test with SF-539 CNS it was above 100 µM. In addition, the TGI in the test on HT29 colon, in the test on 786-0 renal and with SNB-19 CNS was above 100 µM each time.
`CC1=C(O)C(=O)C2C(=O)C1C(C)C2c1ccccc1` (stereo not drawn): the TGI with OVCAR-8 ovarian, in the test on RPMI-8226 leukemia, in the test on UACC-62 melanoma, in the test on TK-10 renal, in the test on K-562 leukemia and with OVCAR-3 ovarian was above 100 µM each time. Moreover, the TGI in the test on NCI-H522 lung, with SK-MEL-5 melanoma, with EKVX NSCLC, in the test on SF-539 CNS, in the test on RXF 393 renal and with HT29 colon was above 100 µM each time. Besides, the TGI with 786-0 renal, with SF-268 CNS and in the test on SNB-19 CNS was above 100 µM each time.
In the case of `Oc1ccc(O)c(-n2cccn2)c1`, the TGI is above 100 µM with OVCAR-8 ovarian; above 100 µM in the test on RPMI-8226 leukemia; above 100 µM in the test on UACC-62 melanoma; above 100 µM in the test on TK-10 renal; 64.3 µM in the test with K-562 leukemia; above 100 µM with SN12C renal. The TGI was 34.7 µM with NCI-H522 lung; above 100 µM in the test on SK-MEL-5 melanoma; above 100 µM in the test on NCI-H460 lung; above 100 µM with EKVX NSCLC; above 100 µM in the test with SF-539 CNS; above 100 µM in the test with RXF 393 renal. For the same compound, the TGI in the test with HT29 colon, with 786-0 renal, in the test on SF-268 CNS and in the test on SNB-19 CNS was above 100 µM throughout.
